For 25 molecules, IC50 results are on record in patent publication US10772893B2, “2-(morpholin-4-yl)-1,7-naphthyridines” (BAYER PHARMA AKTIENGESELLSCHAFT, priority 2014, dated 2020).

This assay concerns HeLa cells. Briefly: Proliferation assay, crystal violet staining. The note with it: Homo sapiens, 96 h, read-out: Inhibition of HeLa cell proliferation, HeLa cells, 4 days incubation.

Method: After 24 hours, the cells of one plate (zero plate) were dyed with crystal violet (see below), whereas the medium of the other plates was replaced with fresh culture medium (200 μl) to which the test substances were added in various concentrations (0 μM, and also in the range of 0.001-10 μM; the final concentration of the solvent dimethyl sulphoxide was 0.1 or 0.5%). The cells were incubated for 4 days in the presence of the test substances. […] After washing the fixed cells three times with water, the plates were dried at room temperature. The cells were stained by adding 100 μl/measurement point of a 0.1% strength crystal violet solution (pH adjusted to pH 3 by adding acetic acid). After washing the cells three times with water, the plates were dried at room temperature. The dye was dissolved by adding 100 μl/measurement point of a 10% strength acetic acid solution. […] The percentage change in cell growth was calculated by normalizing the measured values to the absorbance values of the zero plate (=0%) and the absorbance of the untreated (0 W) cells (=100%). The IC50 values were determined by means of a four parameter fit.

Take `Cc1csc(-c2cc(N3CCOC[C@H]3C)nc3c(-c4ccn[nH]4)nccc23)c1` [Example 239, 2-[(3R)-3-methylmorpholin-4-yl]-4-(4-methylthiophen-2-yl)-8-(1H-pyrazol-5-yl)-1,7-naphthyridine]: the IC50 is 1.13 µM. For the molecule `C[C@@H]1COCCN1c1cc(C2CCSCC2)c2ccnc(-c3ccn[nH]3)c2n1` [Example 241, 2-[(3R)-3-methylmorpholin-4-yl]-8-(1H-pyrazol-5-yl)-4-(tetrahydro-2H-thiopyran-4-yl)-1,7-naphthyridine], the IC50 turned out to be 0.171 µM. As to `C[C@@H]1COCCN1c1cc(C2=CCCN(C)C2)c2ccnc(-c3ccn[nH]3)c2n1` [Example 242, 2-[(3R)-3-methylmorpholin-4-yl]-4-(1-methyl-1,2,5,6-tetrahydropyridin-3-yl)-8-(1H-pyrazol-5-yl)-1,7-naphthyridine], the IC50 worked out at 0.811 µM.

Regarding `C[C@@H]1COCCN1c1cc(C2=CCN(C)CC2)c2ccnc(-c3ccn[nH]3)c2n1` [Example 243, 2-[(3R)-3-methylmorpholin-4-yl]-4-(1-methyl-1,2,3,6-tetrahydropyridin-4-yl)-8-(1H-pyrazol-5-yl)-1,7-naphthyridine], the IC50 amounted to 0.36 µM. Turning to `C[C@@H]1COCCN1c1cc(C2=CCNCC2)c2ccnc(-c3ccn[nH]3)c2n1` [Example 245, 2-[(3R)-3-methylmorpholin-4-yl]-8-(1H-pyrazol-5-yl)-4-(1,2,3,6-tetrahydropyridin-4-yl)-1,7-naphthyridine], the IC50 was found to be 0.343 µM. As to `C[C@@H]1COCCN1c1cc(-c2ccn(C3CCOCC3)n2)c2ccnc(-c3ccn[nH]3)c2n1` [Example 246, 2-[(3R)-3-methylmorpholin-4-yl]-8-(1H-pyrazol-5-yl)-4-[1-(tetrahydro-2H-pyran-4-yl)-1H-pyrazol-3-yl]-1,7-naphthyridine], the IC50 was 2.84 µM.

Turning to `C[C@@H]1COCCN1c1cc(-c2cnc(F)cc2F)c2ccnc(-c3ccn[nH]3)c2n1` [Example 247, 4-(4,6-difluoropyridin-3-yl)-2-[(3R)-3-methylmorpholin-4-yl]-8-(1H-pyrazol-5-yl)-1,7-naphthyridine], the IC50 came to 0.228 µM.

Consider `C[C@@H]1COCCN1c1cc(-c2cnn(C)c2)c2ccnc(-c3ccn[nH]3)c2n1` [Example 248, 2-[(3R)-3-methylmorpholin-4-yl]-4-(1-methyl-1H-pyrazol-4-yl)-8-(1H-pyrazol-5-yl)-1,7-naphthyridine], for which the IC50 turned out to be 0.451 µM. For the molecule `Cc1nn(C)cc1-c1cc(N2CCOC[C@H]2C)nc2c(-c3ccn[nH]3)nccc12` [Example 249, 4-(1,3-dimethyl-1H-pyrazol-4-yl)-2-[(3R)-3-methylmorpholin-4-yl]-8-(1H-pyrazol-5-yl)-1,7-naphthyridine], the IC50 is 0.409 µM. Turning to `Cc1c(-c2cc(N3CCOC[C@H]3C)nc3c(-c4ccn[nH]4)nccc23)cnn1C` [Example 250, 4-(1,5-dimethyl-1H-pyrazol-4-yl)-2-[(3R)-3-methylmorpholin-4-yl]-8-(1H-pyrazol-5-yl)-1,7-naphthyridine], the IC50 amounted to 0.116 µM.

Turning to `C[C@@H]1COCCN1c1cc(C2CCNCC2)c2ccnc(-c3ccn[nH]3)c2n1` [Example 251, 2-[(3R)-3-methylmorpholin-4-yl]-4-(piperidin-4-yl)-8-(1H-pyrazol-5-yl)-1,7-naphthyridine], the IC50 was 0.8 µM. As for `C[C@@H]1COCCN1c1cc(-c2c[nH]nc2C(F)(F)F)c2ccnc(-c3ccn[nH]3)c2n1` [Example 252, 2-[(3R)-3-methylmorpholin-4-yl]-8-(1H-pyrazol-5-yl)-4-[3-(trifluoromethyl)-1H-pyrazol-4-yl]-1,7-naphthyridine], the figure is 0.222 µM. For `C[C@@H]1COCCN1c1cc(-c2cnn(C3CCC3)c2)c2ccnc(-c3ccn[nH]3)c2n1` [Example 253, 4-(1-cyclobutyl-1H-pyrazol-4-yl)-2-[(3R)-3-methylmorpholin-4-yl]-8-(1H-pyrazol-5-yl)-1,7-naphthyridine], the IC50 is 0.558 µM. On to `C[C@@H]1COCCN1c1cc(-c2cnn(C3CC3)c2)c2ccnc(-c3ccn[nH]3)c2n1` [Example 254, 4-(1-cyclopropyl-1H-pyrazol-4-yl)-2-[(3R)-3-methylmorpholin-4-yl]-8-(1H-pyrazol-5-yl)-1,7-naphthyridine], for which the IC50 amounted to 0.312 µM. In the case of `CC(C)n1cc(-c2cc(N3CCOC[C@H]3C)nc3c(-c4ccn[nH]4)nccc23)cn1` [Example 255, 2-[(3R)-3-methylmorpholin-4-yl]-4-[1-(propan-2-yl)-1H-pyrazol-4-yl]-8-(1H-pyrazol-5-yl)-1,7-naphthyridine], the IC50 worked out at 0.458 µM.

Consider `Cc1nn(C)c(C)c1-c1cc(N2CCOC[C@H]2C)nc2c(-c3ccn[nH]3)nccc12` [Example 258, 2-[(3R)-3-methylmorpholin-4-yl]-8-(1H-pyrazol-5-yl)-4-(1,3,5-trimethyl-1H-pyrazol-4-yl)-1,7-naphthyridine], for which the IC50 is 0.263 µM.

Turning to `C[C@@H]1COCCN1c1cc(-c2cn(C)nc2C(F)(F)F)c2ccnc(-c3ccn[nH]3)c2n1` [Example 259, 2-[(3R)-3-methylmorpholin-4-yl]-4-[1-methyl-3-(trifluoromethyl)-1H-pyrazol-4-yl]-8-(1H-pyrazol-5-yl)-1,7-naphthyridine], the IC50 amounted to 0.497 µM.

`C[C@@H]1COCCN1c1cc(-c2cnn(CCO)c2)c2ccnc(-c3ccn[nH]3)c2n1` [Example 260]: the IC50 was determined as 0.485 µM. On to `CCn1cc(-c2cc(N3CCOC[C@H]3C)nc3c(-c4ccn[nH]4)nccc23)cn1` [Example 261, 4-(1-ethyl-1H-pyrazol-4-yl)-2-[(3R)-3-methylmorpholin-4-yl]-8-(1H-pyrazol-5-yl)-1,7-naphthyridine], for which the IC50 is 0.42 µM. `C[C@@H]1COCCN1c1cc(-c2ccn(C)c2)c2ccnc(-c3ccn[nH]3)c2n1` [Example 262, 2-[(3R)-3-methylmorpholin-4-yl]-4-(1-methyl-1H-pyrrol-3-yl)-8-(1H-pyrazol-5-yl)-1,7-naphthyridine]: the IC50 is 0.471 µM.

As to `CC(C)n1ccc(-c2cc(N3CCOC[C@H]3C)nc3c(-c4ccn[nH]4)nccc23)n1` [Example 263, 2-[(3R)-3-methylmorpholin-4-yl]-4-[1-(propan-2-yl)-1H-pyrazol-3-yl]-8-(1H-pyrazol-5-yl)-1,7-naphthyridine], the IC50 worked out at 0.332 µM. In the case of `Cc1cc(-c2cc(N3CCOC[C@H]3C)nc3c(-c4ccn[nH]4)nccc23)c(C)n1C` [Example 264, 2-[(3R)-3-methylmorpholin-4-yl]-8-(1H-pyrazol-5-yl)-4-(1,2,5-trimethyl-1H-pyrrol-3-yl)-1,7-naphthyridine], the IC50 was determined as 0.198 µM.

On to `Cc1n[nH]cc1-c1cc(N2CCOC[C@H]2C)nc2c(-c3ccn[nH]3)nccc12` [Example 266, 2-[(3R)-3-methylmorpholin-4-yl]-4-(3-methyl-1H-pyrazol-4-yl)-8-(1H-pyrazol-5-yl)-1,7-naphthyridine], for which the IC50 is 0.154 µM. For `C[C@@H]1COCCN1c1cc(N)c2ccnc(-c3ccn[nH]3)c2n1` [Example 267, 2-[(3R)-3-methylmorpholin-4-yl]-8-(1H-pyrazol-5-yl)-1,7-naphthyridin-4-amine], the IC50 came out at 2.97 µM. Take `CC(C)Cn1cc(-c2cc(N3CCOC[C@H]3C)nc3c(-c4ccn[nH]4)nccc23)cn1` [Example 268, 2-[(3R)-3-methylmorpholin-4-yl]-4-[1-(2-methylpropyl)-1H-pyrazol-4-yl]-8-(1H-pyrazol-5-yl)-1,7-naphthyridine]: the IC50 stood at 0.415 µM.
